From EP1368050B1, “VIRUS DERIVED ANTIMICROBIAL PEPTIDES” (priority 2001, dated 2008) come the findings set out here.

Holding throughout (settings): 10 mM phosphate buffer, 99.9% killing
The subject of one experiment is Psuedomonas aeruginosa. Put plainly: Bacterial lysis assay (broth dilution), minimal bactericidal concentration. Type of experiment: cell-based, Pseudomonas aeruginosa. The text has this: (§1) The assays for growth inhibition of a microbial target can be used to derive a minimum bactericidal concentration (MBC) value for the peptide, i.e., the concentration of peptide required to kill 99.9% of the microbial sample being tested. This value is well known to those in the art as representative of the effectiveness of a particular antimicrobial agent (e.g., an antibiotic) against a particular organism or group of organisms. In assays to detect the MBC of a peptide, growth inhibition of a bacterial population also can be measured with reference to the number of colony forming units (cfu) after exposure to a peptide relative to a control experiment without a peptide.
(§2) Bacterial lysis assay. Bacterial lysis assays were conducted in a manner similar to that described previously (Lehrer, R. I., M. E. Selsted, D. Szklarek, and F. J. 1983. Infect. Immun. 42: 10-4, 1983; Miller, M. A., R. F. Garry, J. M. Jaynes, and R. C. Montelaro, AIDS Res Hum Retroviruses 7: 511-519, 1991). Bacterial suspensions were cultured in Luria-Bertani Broth to mid-log growth phase and washed by two cycles of centrifugation and suspension in 10 mM phosphate buffer. The Abs600 of the suspension was adjusted with 10 mM phosphate buffer such that, upon dilution, 5-10x10^5 cfu/mL would be treated in the assay. Bacteria were incubated for 1h with two-fold dilutions of peptides (100µM to 100 nM) in 96-well plates using 10 mM phosphate buffer, pH 7.2, as a diluent. Ten-fold dilutions of bacteria were performed to 1:1000; a 100µl aliquot from each condition was spread on the surface of tryptic soy agar plates (Difco, Detroit, Mich.) which were incubated overnight. Colonies of surviving bacteria (cfu, colony-forming units) were counted and compared to untreated controls to determine the amount of peptide-induced killing under each condition. Log killing is defined as the log of the ratio of cfu present before and after treatment with peptide. The minimal bactericidal concentration, MBC, is the peptide concentration at which 99.9% (three log) killing is achieved (Pearson et al., Antimicrob. Agents Chemother. 18: 699-708, 1980).
(§3) Results. Representative gram positive (S. aureus) and gram negative (P. aeruginosa) clinical isolates were used as the index bacteria to survey the peptides described in this invention.
(§4) A limitation of many host-derived antimicrobial peptides is their decreased activity at physiologic (150 mM) NaCl concentration. See Friedrich et al., Antimicrobial Agents and Chemotherapy 43:1542-1548. The activity of eLLPs and LBUs of this invention were compared to an expanded list of clinical bacterial isolates. These are summarized in Table 2 by comparing their MBCs in phosphate buffer alone (low salt) and phosphate buffer containing 150 mM NaCl (physiologic conditions). Inspection of this table would lead one skilled in the art to conclude that the activity of eLLPs and LBUs compare favorably to the host derived antimicrobial peptides as it relates to the spectrum and potency of antimicrobial activity.
On the technique in general: Dilution methods test growth across graded concentrations, often in twofold steps.

In another experiment the test system is Staphylococcus aureus. Described as above. The experiment is classed as cell-based.
From the text: as §1, §2, §3, §4

Experiment [1] concerns Methicillin Resistant S. aureus. The experiment is classed as cell-based.
From the text: as §1, §2, §4

Values after ≈ are worked out from the molar mass of the structure shown. Read-outs that look alike come from different tables or passages of the source. Residues, ends and D or L forms follow the SMILES beside them. No end group written: not given here.

With `CC(C)[C@H](NC(=O)[C@H](CCCNC(=N)N)NC(=O)[C@H](CCCNC(=N)N)NC(=O)[C@@H](NC(=O)[C@@H](NC(=O)[C@H](CCCNC(=N)N)NC(=O)[C@@H](N)CCCNC(=N)N)C(C)C)C(C)C)C(=O)N[C@@H](CCCNC(=N)N)C(=O)N[C@@H](CCCNC(=N)N)C(=O)N[C@H](C(=O)N[C@H](C(=O)N[C@@H](CCCNC(=N)N)C(=O)N[C@@H](CCCNC(=N)N)C(=O)N[C@H](C(=O)N[C@H](C(=O)N[C@@H](CCCNC(=N)N)C(=O)N[C@H](C(=O)N[C@H](C(=O)N[C@@H](CCCNC(=N)N)C(=O)N[C@@H](CCCNC(=N)N)C(=O)N[C@H](C(=O)N[C@H](C(=O)N[C@@H](CCCNC(=N)N)C(=O)N[C@@H](CCCNC(=N)N)C(=O)O)C(C)C)C(C)C)C(C)C)C(C)C)C(C)C)C(C)C)C(C)C)C(C)C` [LBU-2, RRVVRRVRRV VRRVV RVVRR VVRR] (H-RRVVRRVRRVVRRVVRVVRRVVRR-OH), the MBC (usually the smallest concentration meeting the test's criterion for killing) was 1.5 µM (≈ 4.71 µg/mL) against Psuedomonas aeruginosa (0 mM NaCl), 0.8 µM (≈ 2.51 µg/mL) with Psuedomonas aeruginosa (150 mM NaCl), 1500 nM (≈ 4.71 µg/mL) with Staphylococcus aureus (0 mM NaCl) and >100,000 nanomolar with Staphylococcus aureus (150 mM NaCl).

Take `CC(C)[C@H](N)C(=O)N[C@@H](CCCNC(=N)N)C(=O)N[C@@H](CCCNC(=N)N)C(=O)N[C@H](C(=O)N[C@H](C(=O)N[C@@H](CCCNC(=N)N)C(=O)N[C@@H](CCCNC(=N)N)C(=O)N[C@H](C(=O)N[C@H](C(=O)N[C@@H](CCCNC(=N)N)C(=O)N[C@H](C(=O)N[C@H](C(=O)N[C@@H](CCCNC(=N)N)C(=O)N[C@@H](CCCNC(=N)N)C(=O)N[C@H](C(=O)N[C@H](C(=O)N[C@@H](CCCNC(=N)N)C(=O)N[C@@H](CCCNC(=N)N)C(=O)N[C@H](C(=O)N[C@@H](CCCNC(=N)N)C(=O)N[C@@H](CCCNC(=N)N)C(=O)N[C@H](C(=O)N[C@H](C(=O)N[C@@H](CCCNC(=N)N)C(=O)N[C@@H](CCCNC(=N)N)C(=O)N[C@H](C(=O)N[C@H](C(=O)N[C@@H](CCCNC(=N)N)C(=O)N[C@H](C(=O)N[C@H](C(=O)N[C@@H](CCCNC(=N)N)C(=O)N[C@@H](CCCNC(=N)N)C(=O)N[C@H](C(=O)N[C@H](C(=O)N[C@@H](CCCNC(=N)N)C(=O)N[C@@H](CCCNC(=N)N)C(=O)O)C(C)C)C(C)C)C(C)C)C(C)C)C(C)C)C(C)C)C(C)C)C(C)C)C(C)C)C(C)C)C(C)C)C(C)C)C(C)C)C(C)C)C(C)C)C(C)C)C(C)C` [LBU-3, VRRVVRRVVRVVRRVVRRVRRVVRRVVRVV RRVVRR] (H-VRRVVRRVVRVVRRVVRRVRRVVRRVVRVVRRVVRR-OH): the minimal bactericidal concentration (MBC) against Psuedomonas aeruginosa (0 mM NaCl) was determined as 1.5 µM (≈ 6.92 µg/mL); in the experiment with Psuedomonas aeruginosa (150 mM NaCl) it was 0.8 µM (≈ 3.69 µg/mL); against Staphylococcus aureus (0 mM NaCl) it was 1500 nM (≈ 6.92 µg/mL); with Staphylococcus aureus (150 mM NaCl) it was 1500 nM (≈ 6.92 µg/mL).

As for `CC(C)[C@H](NC(=O)[C@H](Cc1c[nH]c2ccccc12)NC(=O)[C@H](CCCNC(=N)N)NC(=O)[C@H](CCCNC(=N)N)NC(=O)[C@@H](NC(=O)[C@@H](NC(=O)[C@H](CCCNC(=N)N)NC(=O)[C@@H](NC(=O)[C@@H](NC(=O)[C@@H](N)CCCNC(=N)N)C(C)C)C(C)C)C(C)C)C(C)C)C(=O)N[C@@H](CCCNC(=N)N)C(=O)N[C@@H](CCCNC(=N)N)C(=O)O` [WLBU-1, RVVRV VRRWV RR] (H-RVVRVVRRWVRR-OH), the MBC against Psuedomonas aeruginosa (0 mM NaCl) is 0.4 µM (≈ 0.655 µg/mL); against Psuedomonas aeruginosa (150 mM NaCl), 2.5 µM (≈ 4.09 µg/mL); against Staphylococcus aureus (0 mM NaCl) it was 30.000 nM (≈ 0.0491 µg/mL); in the experiment on Staphylococcus aureus (150 mM NaCl), 10.000 nM (≈ 0.0164 µg/mL); in experiment [1] (0 mM NaCl), 50,000 nanomolar; in experiment [1] (150 mM NaCl), 50,000 nanomolar.

Take `CC(C)[C@H](NC(=O)[C@H](Cc1c[nH]c2ccccc12)NC(=O)[C@H](CCCNC(=N)N)NC(=O)[C@H](CCCNC(=N)N)NC(=O)[C@@H](NC(=O)[C@@H](NC(=O)[C@H](CCCNC(=N)N)NC(=O)[C@@H](NC(=O)[C@@H](NC(=O)[C@H](CCCNC(=N)N)NC(=O)[C@H](CCCNC(=N)N)NC(=O)[C@H](Cc1c[nH]c2ccccc12)NC(=O)[C@@H](NC(=O)[C@H](CCCNC(=N)N)NC(=O)[C@H](CCCNC(=N)N)NC(=O)[C@@H](NC(=O)[C@H](CCCNC(=N)N)NC(=O)[C@H](CCCNC(=N)N)NC(=O)[C@@H](NC(=O)[C@H](Cc1c[nH]c2ccccc12)NC(=O)[C@H](CCCNC(=N)N)NC(=O)[C@@H](N)CCCNC(=N)N)C(C)C)C(C)C)C(C)C)C(C)C)C(C)C)C(C)C)C(C)C)C(=O)N[C@@H](CCCNC(=N)N)C(=O)N[C@@H](CCCNC(=N)N)C(=O)O` [WLBU-2, RRWVRRVRRV WRRVV RVVRR WVRR] (H-RRWVRRVRRVWRRVVRVVRRWVRR-OH): the minimal bactericidal concentration (MBC) stood at 0.2 µM (≈ 0.68 µg/mL) in the experiment on Psuedomonas aeruginosa (0 mM NaCl); 0.1 µM (≈ 0.34 µg/mL) in the experiment on Psuedomonas aeruginosa (150 mM NaCl); 1000 nM (≈ 3.4 µg/mL) against Staphylococcus aureus (0 mM NaCl); 600 nM (≈ 2.04 µg/mL) against Staphylococcus aureus (150 mM NaCl); 200 nM (≈ 0.68 µg/mL) in experiment [1] (0 mM NaCl); 100 nM (≈ 0.34 µg/mL) in experiment [1] (150 mM NaCl).

With `CC(C)[C@H](N)C(=O)N[C@@H](CCCNC(=N)N)C(=O)N[C@@H](CCCNC(=N)N)C(=O)N[C@H](C(=O)N[C@@H](Cc1c[nH]c2ccccc12)C(=O)N[C@@H](CCCNC(=N)N)C(=O)N[C@@H](CCCNC(=N)N)C(=O)N[C@H](C(=O)N[C@H](C(=O)N[C@@H](CCCNC(=N)N)C(=O)N[C@H](C(=O)N[C@H](C(=O)N[C@@H](CCCNC(=N)N)C(=O)N[C@@H](CCCNC(=N)N)C(=O)N[C@@H](Cc1c[nH]c2ccccc12)C(=O)N[C@H](C(=O)N[C@@H](CCCNC(=N)N)C(=O)N[C@@H](CCCNC(=N)N)C(=O)N[C@H](C(=O)N[C@@H](CCCNC(=N)N)C(=O)N[C@@H](CCCNC(=N)N)C(=O)N[C@H](C(=O)N[C@@H](Cc1c[nH]c2ccccc12)C(=O)N[C@@H](CCCNC(=N)N)C(=O)N[C@@H](CCCNC(=N)N)C(=O)N[C@H](C(=O)N[C@H](C(=O)N[C@@H](CCCNC(=N)N)C(=O)N[C@H](C(=O)N[C@H](C(=O)N[C@@H](CCCNC(=N)N)C(=O)N[C@@H](CCCNC(=N)N)C(=O)N[C@@H](Cc1c[nH]c2ccccc12)C(=O)N[C@H](C(=O)N[C@@H](CCCNC(=N)N)C(=O)N[C@@H](CCCNC(=N)N)C(=O)O)C(C)C)C(C)C)C(C)C)C(C)C)C(C)C)C(C)C)C(C)C)C(C)C)C(C)C)C(C)C)C(C)C)C(C)C)C(C)C` [WLBU-3, VRRVWRRVVRVVRRWVRRVRRVWRRVVRVVRRWVRR] (H-VRRVWRRVVRVVRRWVRRVRRVWRRVVRVVRRWVRR-OH), the MBC with Psuedomonas aeruginosa (0 mM NaCl) was 1.5 µM (≈ 7.44 µg/mL); with Psuedomonas aeruginosa (150 mM NaCl), 0.8 µM (≈ 3.97 µg/mL); in the experiment with Staphylococcus aureus (0 mM NaCl) it was 3,000 nanomolar; against Staphylococcus aureus (150 mM NaCl), 600 nM (≈ 2.98 µg/mL); in experiment [1] (0 mM NaCl) it was 400 nM (≈ 1.98 µg/mL); in experiment [1] (150 mM NaCl) it was 100 nM (≈ 0.496 µg/mL).

For the molecule “RRVVRRVRRVVRRVVRVVRRVVRRVRRVVRRVVRVVRRVVRR [LBU-3.5, RRVVRRVRRVVRRVVRVVRRVVRRVRRVVRRVVRVVRRVVRR]”, the MBC with Psuedomonas aeruginosa (0 mM NaCl) turned out to be 0.4 µM; against Psuedomonas aeruginosa (150 mM NaCl), 0.4 µM; against Staphylococcus aureus (0 mM NaCl), 1000 nM; against Staphylococcus aureus (150 mM NaCl), 600 nM; in experiment [1] (0 mM NaCl), 1500 nM; in experiment [1] (150 mM NaCl), 200 nM.

For the molecule “RVVRVVRRVVRRVRRVVRRVVRVVRRVVRRVRRVVRRVVRVVRRVVRR [LBU-4, RVVRVVRRVVRRVRRVVRRVVRVVRRVVRRVRRVVRRVVRVVRRVVRR]”, the MBC was 0.8 µM against Psuedomonas aeruginosa (0 mM NaCl), 0.4 µM against Psuedomonas aeruginosa (150 mM NaCl), 800 nM in the experiment with Staphylococcus aureus (0 mM NaCl) and 800 nM against Staphylococcus aureus (150 mM NaCl).
